# According to patent publication US7285395B2, “Stearoyl-CoA desaturase 4 gene” (Wisconsin Alumni Research Foundation, priority 2004, dated 2007):
# Legend:
# Type in all cases: in vivo, mouse
# Conditions in all cases: heart, 129SV mice, chow diet containing 0.025% T0901317 fed for 2 days
# mSCD1 = test: quantitative RT-PCR of mSCD1 mRNA in hearts of mice fed test diets
# Protocol: (§1) The mice were fed the following diets. A, a high carbohydrate fat-free diet (CHO-FF). B, high carbohydrate fat-free diet supplemented with fish oil (CHO-FO) that was fed for 4 days. C, chow diet supplemented with the LXRα agonist T0901317 (LXR) and fed for 2 days. Total RNA from hearts of mice from each group (n=4) was subjected to quantitative RT-PCR using specific primers as described in the example below. The fold change was calculated after correction for the levels of cyclophilin used as a standard. Each value represents the mean±S.E. (n=4). *, p<0.01; **, p<0.001 versus wild type (Student's t test).
# (§2) Animals and Diets—Male C57BL6J and ob/ob mice were obtained from the Jackson Laboratory (Bar Harbor, Me.). 129S6/SvEv mice were purchased from Taconic (Germantown, N.Y.). […]
# (§3) Cloning and Expression of the Mouse SCD4 cDNA—A BLAST search of the mouse genomic data base identified a gene with exon sequences highly homologous to the amino acid sequence of mouse SCD1, 2, and 3 (GenBank™ accession numbers AH—002082, M26270, and AF272037, respectively). Using the genomic sequence, a candidate open reading frame of the putative SCD4 was cloned by synthesizing a forward and a reverse primer. […]
# mSCD4 = test: quantitative RT-PCR of mSCD4 mRNA in hearts of mice fed test diets
# Protocol: as §1, §2, §3
# mSCD2 = test: quantitative RT-PCR of mSCD2 mRNA in hearts of mice fed test diets
# Protocol: as §1, §2, §3
structure (smiles),measurement,setting,value
O=S(=O)(c1ccccc1)N(CC(F)(F)F)c1ccc(C(O)(C(F)(F)F)C(F)(F)F)cc1 [T0901317],induction of mouse SCD1 mRNA,mSCD1,18 fold
same,induction of mouse SCD4 mRNA,mSCD4,60 fold
same,induction of mouse SCD2 mRNA,mSCD2,12 fold
